Drawing on PubChem BioAssay (NCI), this text covers TGI and GI50 for 14 compounds.

Among the test systems are HCC-2998 colon; SNB-75 CNS; HCT-15 colon; M14 melanoma; HL-60(TB) leukemia; UO-31 renal; EKVX NSCLC; OVCAR-3 ovarian; DU-145 prostate; PC-3 prostate.
What all share (test): inhibition of tumour cell growth, NCI panel, 48 h

Structures are written as SMILES.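 Results reflect a 48-hour exposure of cells in 96-well plates to compound at five concentrations. GI50 is the concentration that inhibits growth by half. At the TGI there is no net growth.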

Turning to `O=C1/C(=N\O)S(=O)(=O)c2ccccc21`, the TGI with HCC-2998 colon, in the assay with SNB-75 CNS, in the assay with HCT-15 colon, in the assay with M14 melanoma, in the assay on HL-60(TB) leukemia and in the assay with UO-31 renal was above 100 µM throughout.
Take `COC1=C(C)C(=O)c2c(cc3c(c2O)C(C)(CCC=C(C)C)C(C)O3)C1=O` (stereo unspecified): the TGI is above 78.8 µM in the assay on HCC-2998 colon; 37.1 µM in the assay with SNB-75 CNS; above 57.2 µM with HCT-15 colon; 55.7 µM in the assay with M14 melanoma; above 100 µM with HL-60(TB) leukemia; above 100 µM in the assay with EKVX NSCLC. The TGI with UO-31 renal and in the assay on OVCAR-3 ovarian was above 100 µM throughout.
As for `CCc1cccc(C)c1NC(=O)C1=C(C)NC(C)=C(C(=O)Nc2c(C)cccc2CC)C1c1ccc2c(c1)OCO2`, the TGI worked out at 33.8 µM with HCC-2998 colon; 91.9 µM with SNB-75 CNS; 33.8 µM with M14 melanoma; 57.1 µM in the assay on HL-60(TB) leukemia; 58.6 µM in the assay on EKVX NSCLC; 28.7 µM with UO-31 renal. In addition, in the assay with OVCAR-3 ovarian, the TGI amounted to 39.8 µM.
As to `COc1cccc(NC(=O)CC(=O)N2N=C(n3ccc4ccccc43)CC2c2ccccc2)c1` (stereo unspecified), the TGI in the assay on HCC-2998 colon, in the assay on SNB-75 CNS, in the assay on HCT-15 colon, in the assay with M14 melanoma, in the assay with HL-60(TB) leukemia and in the assay with EKVX NSCLC was above 100 µM throughout. Besides, the TGI in the assay on UO-31 renal and in the assay on OVCAR-3 ovarian was above 100 µM throughout.
Turning to `COc1cc([N+](=O)[O-])c(OC)cc1-c1nc2sccn2c1/C=N/N=C(N)N`, the GI50 is 26.3 µM in the assay with HCT-15 colon; 30.4 µM in the assay on DU-145 prostate; 40.8 µM with M14 melanoma; 24.2 µM with PC-3 prostate; 25.9 µM with EKVX NSCLC; 42.5 µM in the assay on UO-31 renal. Further, the GI50 in the assay with OVCAR-3 ovarian was 14.6 µM. The TGI in the assay with HCT-15 colon is 72.4 µM; in the assay on DU-145 prostate it was above 100 µM; in the assay on M14 melanoma it was above 100 µM; in the assay with PC-3 prostate it was above 100 µM; with EKVX NSCLC it was 73.6 µM; in the assay with UO-31 renal, above 100 µM. This compound also displayed a TGI with OVCAR-3 ovarian of 66.5 µM.
`CC(=O)O[C@H]1CCC2[C@@H]3CCC4c5nonc5CC[C@]4(C)C3CC[C@@]21C` (stereo partly specified): the GI50 is above 100 µM in the assay with HCC-2998 colon, above 10 µM with SNB-75 CNS, above 100 µM in the assay on HL-60(TB) leukemia and above 100 µM in the assay on EKVX NSCLC. Further, the TGI in the assay on HCC-2998 colon is above 100 µM; in the assay with SNB-75 CNS it was above 100 µM; with HCT-15 colon, above 10 µM; in the assay with M14 melanoma it was above 10 µM; with HL-60(TB) leukemia, above 100 µM; in the assay on EKVX NSCLC it was above 100 µM. The compound also came in with a TGI with UO-31 renal above 10 µM.
As for `C[CH2][Sn]([CH2]C)([O]C(=O)c1ccccc1F)[O][Sn]([CH2]C)([CH2]C)[O]C(=O)c1ccccc1F`, the GI50 with HCC-2998 colon was above 43.7 µM; in the assay on SNB-75 CNS, 25.1 µM; in the assay with HCT-15 colon it was 34.3 µM; in the assay on M14 melanoma it was 26.5 µM; in the assay with HL-60(TB) leukemia, 43.3 µM; in the assay with EKVX NSCLC it was 33.9 µM. The results for the GI50 in the assay with UO-31 renal and in the assay on OVCAR-3 ovarian were above 72.4 µM and above 42 µM, respectively. Moreover, the TGI was above 73.8 µM with HCC-2998 colon; above 57.8 µM in the assay on SNB-75 CNS; above 62.8 µM with HCT-15 colon; above 57.2 µM in the assay on M14 melanoma; above 75.7 µM in the assay on HL-60(TB) leukemia; above 100 µM in the assay with EKVX NSCLC. The TGI in the assay on UO-31 renal was above 100 µM; with OVCAR-3 ovarian, above 56.3 µM.
Turning to `Nc1nc(-c2ccco2)cc(-c2ccc(CO)o2)n1`, the TGI in the assay with SNB-75 CNS, in the assay on HCT-15 colon, in the assay on M14 melanoma, with HL-60(TB) leukemia, with EKVX NSCLC and with UO-31 renal was above 100 µM throughout. The compound also came in with a TGI in the assay with OVCAR-3 ovarian above 100 µM.
Turning to `O=C(NC(=Nc1ccccc1)SCCSC(=Nc1ccccc1)NC(=O)c1cccs1)c1cccs1`, the TGI with HCC-2998 colon was above 100 µM; in the assay on SNB-75 CNS, 99.8 µM; in the assay on HCT-15 colon, above 100 µM; in the assay with M14 melanoma it was above 100 µM; with EKVX NSCLC, above 100 µM; in the assay with UO-31 renal it was 92.8 µM. Moreover, the TGI with OVCAR-3 ovarian is above 100 µM.
For the compound `NC(=O)NC12CC3CC(CC(F)(C3)C1)C2`, the TGI in the assay with HCC-2998 colon, in the assay with SNB-75 CNS, with M14 melanoma, in the assay on HL-60(TB) leukemia, with EKVX NSCLC and in the assay on UO-31 renal was above 100 µM throughout. This compound also yielded a TGI in the assay on OVCAR-3 ovarian above 100 µM.
For the compound `O=S(=O)(/C=C/CS(=O)(=O)c1ccccc1)c1ccccc1`, the TGI in the assay with HCC-2998 colon is 57.1 µM; in the assay on SNB-75 CNS, above 100 µM; with HCT-15 colon it was 45.6 µM; in the assay with M14 melanoma it was 67.3 µM; with HL-60(TB) leukemia, 37.9 µM; in the assay with EKVX NSCLC, above 100 µM. The TGI is above 100 µM in the assay on UO-31 renal and 84.7 µM in the assay on OVCAR-3 ovarian.
As to `COc1cc2c(cc1OC)[C@@H](Nc1ccc(F)cc1)C1COC(=O)[C@@H]1C2c1cc(OC)c(O)c(OC)c1` (stereo partly specified), the TGI is 9.9 µM in the assay with HCC-2998 colon; above 48 µM in the assay on SNB-75 CNS; above 32.1 µM in the assay on HCT-15 colon; 10.5 µM with M14 melanoma; 0.626 µM with HL-60(TB) leukemia; above 100 µM in the assay on EKVX NSCLC. The results for the TGI in the assay with UO-31 renal and in the assay on OVCAR-3 ovarian were 15.4 µM and above 100 µM, respectively.
`O=C(N/C(=C\c1ccc(/C=C(\NC(=O)c2ccccc2)c2nc3ccccc3[nH]2)cc1)c1nc2ccccc2[nH]1)c1ccccc1`: the TGI in the assay with HCC-2998 colon, in the assay on SNB-75 CNS, with HCT-15 colon, in the assay on M14 melanoma, in the assay with EKVX NSCLC and in the assay with UO-31 renal was above 100 µM each time. Moreover, the TGI with OVCAR-3 ovarian was above 100 µM.
For `O=C(O)C(CS)NCc1c2ccccc2nc2ccccc12` (stereo unspecified), the TGI in the assay on HCC-2998 colon was above 100 µM; in the assay with SNB-75 CNS, above 100 µM; in the assay on HCT-15 colon, above 100 µM; with HL-60(TB) leukemia, 62 µM; in the assay with EKVX NSCLC, above 100 µM; in the assay with UO-31 renal it was 64.2 µM. Further, the TGI in the assay with OVCAR-3 ovarian is above 100 µM.
